Oligonucleotides are written 5' to 3', each unit as a sugar letter and its base; * is a phosphorothioate linkage, no mark a phosphodiester; rarer units and linkages stand in square brackets, end groups in braces. Plain capitals give the bases only. d = 2'-deoxy (DNA)
How the values were obtained:
[1] = tested on: subcutaneous H460 human non-small-cell lung tumor xenografts; assay: Systemic (i.p.) oligonucleotides with or without vinorelbine in H460 xenografts; type: in vivo, SCID-RAG2 mice; settings: for antitumor efficacy on H460 xenografts (in words): systemic, oligonucleotide 15 mg/kg i.p., VNB 5 or 10 mg/kg i.v.
Description: (§1) Initial systemic PS-oligonucleotide studies were designed without any chemotherapeutic agents. SCID-RAG2 mice were inoculated with H460 human lung carcinoma cells (s.c. shoulder injection of 10^6 cells) and treatments with G4 and F3 AS PS-oligonucleotides, as well as a scrambled control, were initiated three days after tumor inoculation. Nucleobase oligomer injections were administered i.p. at 12.5 mg/kg three times a week for three weeks. At the end of the treatment period, mean tumor sizes in the groups treated with either G4 or F3 AS oligonucleotides were ˜50% smaller than in the group treated with a scrambled control oligonucleotides (FIG. 15). The same treatment protocol was tested on female SCID-RAG2 mice inoculated orthotopically with MDA-MB-435/LCC6 human breast carcinoma cells. Two weeks after the last treatment (day 35) tumor volumes of mice treated with F3, C5 or G4 AS oligonucleotides were 70%, 60%, and 45%, respectively, smaller than vehicle controls (FIG. 16).
We conducted additional examination of the antitumor effects of G4 AS oligonucleotides in SCID-RAG2 mice bearing xenografts of H460 human non-small-cell lung tumors implanted subcutaneously. Saline-treated control tumors grew reproducibly to a size of 0.75 cm^3 within approximately 24 days (FIG. 17). Oligonucleotide treatments were initiated three days after tumor cell inoculation. G4 AS oligonucleotides (5 to 15 mg/kg) were administered using a treatment schedule of i.p. injections given once a day on days 3-7, 10-14, and 17-21. The treatment with 5 or 15 mg/kg G4 AS oligonucleotides greatly delayed tumor growth: on day 24 mean tumor sizes were 0.75, 0.45 and 0.29 cm^3 in control, 5 and 15 mg/kg treated groups, respectively (FIG. 18A). There was a dose-dependent inhibition of tumor growth. […] A dose of 15 mg/kg was selected for the future combination treatment regimens with anticancer drugs.
The human non-small cell lung cancer cell line (large cell type) NCI-H460 (H460) was obtained from ATCC and maintained in RPMI 1640 supplemented with 10% FCS at 37° C. in a humidified atmosphere containing 5% CO2. Cells were used in exponential growth phase, up to a maximum of 25 in vitro passages. Male SCID-RAG2 mice (7-9 weeks old, 23-26 g) were obtained from British Columbia Cancer Agency Joint Animal Facility breeding colony and kept in aseptic environments. A tumor model of NCI-H460 cells in SCID-RAG2 mice was established by subcutaneous implantation of 1×10^6 NCI-H460 cells on the back of mice.
(§2) Efficacy experiments were conducted in male RAG2 immunodeficient mice bearing NCI-H460 tumours or female RAG2 mice bearing LCC6 tumors. Treatments were commenced on day 3 after tumor inoculation. Saline (controls), G4 AS oligonucleotides (5 or 15 mg/kg), or G4 SC oligonucleotides (5 or 15 mg/kg) were administered i.p. daily for five doses a week over a three week regimen. Vinorelbine (VNB, 5 or 10 mg/kg) was administered i.v. via the tail vein, either alone or in combination with oligonucleotides, at day 3, 7, 11 and 17 after tumor inoculation. When oligonucleotides were administered in combination with VNB, the drug treatment was performed four hours after ODN treatment.
(§3) Mice were observed daily. Body weight measurements and signs of stress (e.g., lethargy, ruffled coat, ataxia) were used to detect possible toxicities. Animals with ulcerated tumor, or tumor volumes of 1 cm^3 or greater were killed. Digital caliper measurements of tumors were converted into mean tumor size (cm^3) using the formula: ½[length (cm)]×[width (cm)]^2. An average tumor size per mouse was used to calculate the group mean tumor size±SE (n=6 mice) from at least two independent experiments per group.

[2] = mouse, in vivo
Source text: as §3

XIAP protein [3] = assay: XIAP protein knock-down in H460 cells (western blot, densitometry); type: cell-based, human
Description: FIGS. 3 and 4 are graphs showing the effects of 4×4 mixed backbone (MBO) FG8 or E12 oligonucleotides in amounts of 31 nM (FIG. 3) or 63 nM (FIG. 4). H460 lung carcinoma cells were transfected for 18 hours on one, two, or three consecutive days using 125 nM MBOs and Lipofectamine 2000. Samples for western analysis were harvested at the indicated time. Scanning densitometry was performed, and XIAP protein levels were normalized to GAPDH and compared to a mock control set to 100%. The indicated percentages express % XIAP protein knockdown versus specific scrambled controls.
(§4) One day prior to transfection, H460 cells were plated in 6- or 96-well tissue culture plates. Phosphorothioate antisense oligonucleotides were delivered into cells with Lipofectamine 2000 (Life Technologies) in the form of liposome-oligonucleotide complexes. Following a 4.5 or 6 h transfection, the transfection medium was replaced with RPMI medium containing 10% FBS, and the cells incubated for another 24 or 48 h.
(§5) The cells or tumor tissue samples were lysed with ice-cold lysis buffer (50 mM Tris, 150 mM NaCl, 2.5 mM EDTA, 0.1% SDS, 0.5% sodium deoxycholate, 1% NP-40, 0.02% sodium azide) containing protease inhibitors (Complete-Mini protease inhibitor tablets; Boehringer Mannheim GmBH, Mannheim, Germany). After incubation for 30 min on ice, samples were centrifuged at 10,000 rpm for 15 min, and stored at −20° C. Protein content in the lysed extracts was determined using a detergent-compatible Bio-Rad assay (Bio-Rad Labs, Hercules, Calif.). Equal amounts of protein (40 μg/lane) were separated on 12% SDS-polyacrylamide gels or 4-15% gradient SDS-polyacrylamide pre-made gels (Bio-Rad) and transferred to nitrocellulose membranes. Primary antibodies against XIAP, Bcl-2 (DAKO, Glostrup, Denmark), Bax (Sigma, St. Louis, Mo.), β-actin (Sigma), caspase-3 (BD PharMingen, San Diego, Calif.), and PARP (BD PharMingen) were used. The secondary antibody was the appropriate horseradish-conjugated anti-mouse or anti-rabbit IgG (Promega, Madison, Wis.). Proteins were detected by enhanced chemiluminescence (ECL; Amersham Pharmacia Biotech, Buckinghamshire, England) and visualized after exposure to Kodak autoradiography film. Scanning densitometry (Molecular Dynamics, Sunnyvale, Calif.) was performed to quantify band intensities by volume/area integration. The amount of XIAP, caspase-3, Bcl-2 and Bax in cells was normalized to their respective lane β-actin levels, upon stripping and reprobing.

pro-caspase-3, PARP = assay: Pro-caspase-3 and PARP protein in H460 cells (western blot); type: cell-based, human; settings: 1.2 μM
Description: as §4, §5

Bcl-2 and Bax = assay: Bcl-2:Bax ratio in H460 cells (western blot); type: cell-based, human; settings: 1.2 μM
Description: FIGS. 11A and 11B are schematic illustrations showing XIAP oligonucleotide-mediated effects on caspase activation. The effect of XIAP oligonucleotides F3, G4, or C5, or their respective RP and SC ODN controls at 1.2 μM on the expression of pro-caspase-3, PARP (both full length (116 kDa) and processed (85 kDa)) (FIG. 10A) and Bcl-2 and Bax protein levels (FIG. 10B) in transfected H460 cells compared to control is shown. Proteins expression was analyzed by western blotting. Bcl-2 and Bax protein levels were normalized to cellular actin levels and quantified by densitometry. […]
The cells or tumor tissue samples were lysed with ice-cold lysis buffer (50 mM Tris, 150 mM NaCl, 2.5 mM EDTA, 0.1% SDS, 0.5% sodium deoxycholate, 1% NP-40, 0.02% sodium azide) containing protease inhibitors (Complete-Mini protease inhibitor tablets; Boehringer Mannheim GmBH, Mannheim, Germany). […] Protein content in the lysed extracts was determined using a detergent-compatible Bio-Rad assay (Bio-Rad Labs, Hercules, Calif.). […] Proteins were detected by enhanced chemiluminescence (ECL; Amersham Pharmacia Biotech, Buckinghamshire, England) and visualized after exposure to Kodak autoradiography film. Scanning densitometry (Molecular Dynamics, Sunnyvale, Calif.) was performed to quantify band intensities by volume/area integration. […]

[4] = tested on: MDA-MB-435/LCC6 human breast carcinoma xenografts; assay: Systemic (i.p.) PS-oligonucleotides in LCC6 breast carcinoma xenografts; type: in vivo, female SCID-RAG2 mice; settings: 12.5 mg/kg i.p.; day 35, two weeks after the last treatment
Description: as §1, §2

XIAP RNA = XIAP RNA knock-down in T24 cells (TaqMan quantitative PCR); type: cell-based, human
Summary of the method: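 T24 bladder carcinoma cells (1.5×10^4/well) cultured 24 h in antibiotic-free McCoy's medium, then transfected with antisense oligonucleotides using Lipofectamine-based conditions optimized on survivin knock-down. XIAP mRNA measured by TaqMan RT-qPCR, quantified relative to GAPDH by the comparative Ct method.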

XIAP protein [5] = assay: XIAP protein knock-down in T24 cells (XIAP ELISA, relative to total protein); type: cell-based, human
Summary of the method: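 T24 bladder carcinoma cells transfected with antisense oligonucleotides using Lipofectamine plus in serum-free, antibiotic-free McCoy's medium for three hours, then serum added. XIAP protein measured by colorimetric sandwich ELISA on day 4, normalized to total cellular protein and compared with mock transfection.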

XIAP mRNA = XIAP mRNA knock-down in H460 cells (real-time RT-PCR / TaqMan); type: cell-based, human
Summary of the method: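 NCI-H460 cells transfected with phosphorothioate antisense oligonucleotides via Lipofectamine 2000; RNA isolated after 6 h treatment. XIAP mRNA quantified by one-step TaqMan real-time RT-PCR, comparative Ct (threshold 30× baseline SD), normalized to GAPDH and expressed relative to untreated control cells.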

T24 cells = assay: Visual inspection of T24 cell morphology after transfection; type: cell-based, human; settings: twenty hours after transfection
Source text: The occurrence of cytoxicity induced by oligonucleotide E4 was examined by visually inspecting T24 cells that were left untreated, mock transfected, or transfected with E4, E4 scrambled, E4 reverse polarity, or E4 mismatched oligonucleotides. Twenty hours after transfection, the cells were examined for morphology (FIG. 5D).

H460 cells [6] = assay: Apoptotic flow cytometric assay (PI staining, hypo-diploid DNA content); type: cell-based, human; settings: 1.2 μM, untreated control 16.6%
Description: Cells were treated with liposome-oligonucleotide complexes for 4.5 h, and incubated for another 48 h in the medium without transfection reagent at 37° C. Following incubation, cells were harvested, washed twice with sample buffer (0.5% glucose in PBS without Ca^++ and Mg^++), and fixed in cold 70% ethanol at 4° C. for at least 18 hrs. Samples were centrifuged at 3000 rpm for 10 min, then resuspended in sample buffer containing 50 μg/ml propidium iodide (PI) and 400 U/ml RNase A. Samples were incubated for 30 min at room temperature and 30 min on ice, followed by flow cytometry analysis. EXPO Software (Applied Cytometry Systems, Sacramento, Calif.) was used to generate histograms, which were used to determine the cell cycle phase distribution after debris exclusion. The Sub G1/G0 cell fraction was considered as representative for apoptotic cells.

H460 cells [7] = assay: Nuclear morphology (DAPI staining); type: cell-based, human; settings: 1.2 μM
Description: Cells were treated with liposome-oligonucleotde complexes for 4.5 h, and incubated for another 48 h at 37° C. in the medium without transfection reagent or oligonucleotides. Cells were harvested and stained with 0.10 μg/ml DAP1 (4′, 6-diamidino-2-2-phenylindole) for 30 min at room temperature. Cells were placed on a glass slide, cytospun, and viewed with a Leica microscope and 40× objective lens under UV fluorescent illumination. Digital images were captured using Imagedatabase V. 4.01 Software (Leica, Germany).

H460 cells [8] = assay: H460 cell growth, viability or death (MTT assay); type: cell-based, human; settings: 1.2 μM
Description: Growth inhibition of […] cells was determined by the colorimetric MTT cell viability/proliferation assay. In brief, cells were treated with liposome-oligonucleotide complexes for 4.5 h, then incubated for another 48 h at 37° C. in medium without transfection reagent or oligonucleotides in the presence or absence of anticancer drugs. MTT (25 μg/well) was added to each well, and the plates incubated for 3 h at 37° C. Following the incubation step, the colored formazan product was dissolved by the addition of 200 μl DMSO. Plates were read using the microtiter plate reader (Dynex Technologies Inc., Chantilly, Va.) at a wavelength of 570 nm. The percentage of surviving cells in wells treated with oligonucleotides was normalized to untreated controls. All assays were performed in triplicate.

CCC1=C[C@@H]2CN(C1)Cc1c([nH]c3ccccc13)[C@@](C(=O)OC)(c1cc3c(cc1OC)N(C)[C@H]1[C@@](O)(C(=O)OC)[C@H](OC(C)=O)[C@]4(CC)C=CCN5CC[C@]31[C@@H]54)C2 [VNB, vinorelbine, reference compound]
average tumor size ([1]; day 29, VNB 5 mg/kg, oligonucleotides 15 mg/kg): 0.59±0.04 cm^3 | antitumor efficacy on H460 xenografts (in words) [1]: significant tumor growth suppression | signs of toxicity in mice [2]: without showing significant signs of undesirable toxicity

ATCTTCTCTTGAAAATAGG (DNA, all phosphorothioate, methylation of C not given here) [F3 AS]
reduction of XIAP protein level (XIAP protein [3]; 1.2 μM, 24 h after the end of transfection): 50% | reduction of pro-caspase-3 protein levels compared to untreated control (pro-caspase-3, PARP): 40% | ratio of Bcl-2:Bax (Bcl-2 and Bax): unchanged | mean tumor size smaller than scrambled control group ([1]; PS-oligonucleotides 12.5 mg/kg i.p. three times a week for three weeks, end of treatment): ~50% | tumor volumes smaller than vehicle controls [4]: 70%

CGCACGGTATCTCCTTCAC (antisense; chemistry not fully specified) [Code E4]
XIAP down-regulation T24 RNA (XIAP RNA): 47% | XIAP down-regulation T24 protein (XIAP protein [5]): 34% | XIAP protein levels relative to total protein, compared to mock transfection (in words) (XIAP protein [5]; first screen of the library): some decrease | XIAP down-regulation H460 RNA (XIAP mRNA): 51% | signs of toxicity (cell morphology) (T24 cells): showed signs of toxicity

GGCTCTTTGCCCACTGAAT (dG*dG*dC*dT*dC*dT*dT*dT*dG*dC*dC*dC*dA*dC*dT*dG*dA*dA*dT) [G4 SC, reference compound]
effect on XIAP protein levels (in words) (XIAP protein [3]): little XIAP loss | effect on caspase-3 or PARP protein expression (pro-caspase-3, PARP): did not have any effect | hypo-diploid DNA content of cells (H460 cells [6]): 22.1% | nuclear morphological changes characteristic of apoptosis (H460 cells [7]): Few cells showed these morphological changes | cell death (H460 cells [8]; H460 cells): less than 10% | reduction of H460 cell growth relative to untreated control (H460 cells [8]; MTT, 48 hours after transfection): less than 10% | tumors reduced in size, % of control tumors ([1]; 15 mg/kg, day 21 or 24): 24% | antitumor efficacy on H460 xenografts (in words) [1]: no therapeutic activity
